Reference: patent publication US8822517B2, “Arylosulfonamides for the treatment of CNS diseases” (Adamed SP. Z O.O., priority 2010, dated 2014)

Tests used:
adrenergic α1 receptor = experiment: Binding assay α1 (non-selective), [3H]prazosin, rat cerebral cortex; conditions: percent inhibition of control specific binding; compounds tested at 1×10^−6 M
How it was run: (§1)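 Compounds tested at a single 1×10^−6 M concentration against the listed radioligands; bound label counted by scintillation, with non-specific binding defined by excess unlabelled ligand and subtracted from total.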

[1] = molecular target: T1, serotonine transporter (SERT) receptor (Homo sapiens, UniProt P31645); experiment: Binding assay SERT (h), [3H]imipramine, CHO cells; conditions: read-out: SERT [%]
T1 construct: expressed in transfected cells; host or cells: CHO cells
T1 sequence (P31645 whole entry): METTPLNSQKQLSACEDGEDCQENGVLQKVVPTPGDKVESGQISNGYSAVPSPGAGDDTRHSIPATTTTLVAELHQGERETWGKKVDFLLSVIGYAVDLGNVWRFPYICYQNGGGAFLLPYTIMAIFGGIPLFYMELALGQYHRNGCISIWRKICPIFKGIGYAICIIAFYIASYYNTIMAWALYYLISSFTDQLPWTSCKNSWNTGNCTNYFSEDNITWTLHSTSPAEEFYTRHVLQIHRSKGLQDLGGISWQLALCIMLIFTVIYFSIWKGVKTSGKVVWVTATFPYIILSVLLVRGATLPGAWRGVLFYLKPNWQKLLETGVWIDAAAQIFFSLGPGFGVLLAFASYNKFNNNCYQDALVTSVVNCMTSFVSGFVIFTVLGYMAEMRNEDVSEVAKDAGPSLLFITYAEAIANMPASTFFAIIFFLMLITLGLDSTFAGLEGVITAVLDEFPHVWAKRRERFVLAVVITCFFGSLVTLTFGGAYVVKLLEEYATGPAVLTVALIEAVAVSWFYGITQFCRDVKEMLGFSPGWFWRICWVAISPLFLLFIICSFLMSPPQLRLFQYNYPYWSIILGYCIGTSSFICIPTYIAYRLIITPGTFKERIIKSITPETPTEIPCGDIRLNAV
How it was run: as §1

[2] = molecular target: T2, serotoninergic 5-HT1A receptor (Homo sapiens, UniProt P08908); experiment: Binding assay 5-HT1A (h), [3H]8-OH-DPAT, HEK-293 cells; set-up: expressed in transfected cells; host or cells: HEK-293 cells; conditions: read-out: 5-HT1A
T2 sequence (P08908 1-422): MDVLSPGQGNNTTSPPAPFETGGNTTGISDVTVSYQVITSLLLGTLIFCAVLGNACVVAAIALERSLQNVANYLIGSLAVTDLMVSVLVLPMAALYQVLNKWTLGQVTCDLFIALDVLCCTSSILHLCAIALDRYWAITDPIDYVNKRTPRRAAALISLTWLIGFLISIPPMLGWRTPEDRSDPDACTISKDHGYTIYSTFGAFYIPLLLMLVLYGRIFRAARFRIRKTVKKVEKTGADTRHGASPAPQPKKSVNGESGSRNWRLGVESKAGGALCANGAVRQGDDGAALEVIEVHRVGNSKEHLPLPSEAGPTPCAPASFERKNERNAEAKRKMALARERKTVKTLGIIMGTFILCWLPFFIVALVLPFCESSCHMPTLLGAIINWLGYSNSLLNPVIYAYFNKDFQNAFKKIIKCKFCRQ
How it was run: as §1

[3] = molecular target: histaminergic H1 receptor (Homo sapiens, UniProt P35367); experiment: Binding assay H1 (h), [3H]pyrilamine, HEK-293 cells; set-up: expressed in transfected cells; host or cells: HEK-293 cells; conditions: read-out: H1 [%]
Chain of histaminergic H1 receptor (P35367 whole entry): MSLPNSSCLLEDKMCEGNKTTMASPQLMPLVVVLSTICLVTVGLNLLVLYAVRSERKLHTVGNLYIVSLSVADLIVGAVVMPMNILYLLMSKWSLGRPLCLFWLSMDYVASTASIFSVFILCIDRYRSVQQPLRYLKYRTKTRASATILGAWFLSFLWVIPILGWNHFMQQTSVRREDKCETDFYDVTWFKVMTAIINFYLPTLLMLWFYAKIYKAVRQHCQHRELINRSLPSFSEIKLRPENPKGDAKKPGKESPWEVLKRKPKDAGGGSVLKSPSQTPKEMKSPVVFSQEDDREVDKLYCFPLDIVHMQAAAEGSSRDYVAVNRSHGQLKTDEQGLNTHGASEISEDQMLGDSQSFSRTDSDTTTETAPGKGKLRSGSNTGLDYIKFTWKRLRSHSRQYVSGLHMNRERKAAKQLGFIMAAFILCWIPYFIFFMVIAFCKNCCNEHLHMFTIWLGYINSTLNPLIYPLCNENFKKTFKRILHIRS
Experimental: (§2) The specific ligand binding to the receptors is defined as the difference between the total binding and the nonspecific binding determined in the presence of an excess of so unlabelled ligand.
(§3) The specific Ligand binding to the receptor is defined as the difference between total and non-specific binding determined in the presence of an excess of unlabelled ligand. The compounds were tested at a concentration of 1×10^−6 M, and scintillation counting was the method of detection of ligand binding.

[4] = molecular target: serotoninergic 5-HT2A receptor (Homo sapiens, UniProt P28223); experiment: Binding assay 5-HT2A (h), [3H]ketanserin, HEK-293 cells; set-up: expressed in transfected cells; host or cells: HEK-293 cells; conditions: read-out: 5-HT2A
Chain of serotoninergic 5-HT2A receptor (P28223 whole entry): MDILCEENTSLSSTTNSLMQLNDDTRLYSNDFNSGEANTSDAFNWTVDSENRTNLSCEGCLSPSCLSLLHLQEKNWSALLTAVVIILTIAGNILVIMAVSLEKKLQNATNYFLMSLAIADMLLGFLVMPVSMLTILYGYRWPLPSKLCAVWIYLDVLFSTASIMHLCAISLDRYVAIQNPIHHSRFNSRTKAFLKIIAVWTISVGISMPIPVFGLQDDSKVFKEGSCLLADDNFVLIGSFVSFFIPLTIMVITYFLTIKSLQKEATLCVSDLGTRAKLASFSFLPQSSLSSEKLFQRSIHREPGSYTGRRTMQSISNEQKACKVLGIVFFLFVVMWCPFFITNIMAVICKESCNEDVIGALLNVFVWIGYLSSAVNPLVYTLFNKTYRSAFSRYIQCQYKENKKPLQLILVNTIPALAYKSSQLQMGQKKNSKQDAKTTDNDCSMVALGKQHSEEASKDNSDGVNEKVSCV
How it was run: as §1

sigma σ receptor = experiment: Binding assay σ (non-selective), [3H]DTG, rat cerebral cortex; conditions: percent inhibition of control specific binding; compounds tested at 1×10^−6 M
Experimental: as §2, §3

[5] = molecular target: serotoninergic 5-HT6 receptor (Homo sapiens, UniProt P50406); experiment: Binding assay 5-HT6 (h), [3H]LSD, CHO cells; set-up: expressed in transfected cells; host or cells: CHO cells; conditions: read-out: 5-HT6
Chain of serotoninergic 5-HT6 receptor (P50406 whole entry): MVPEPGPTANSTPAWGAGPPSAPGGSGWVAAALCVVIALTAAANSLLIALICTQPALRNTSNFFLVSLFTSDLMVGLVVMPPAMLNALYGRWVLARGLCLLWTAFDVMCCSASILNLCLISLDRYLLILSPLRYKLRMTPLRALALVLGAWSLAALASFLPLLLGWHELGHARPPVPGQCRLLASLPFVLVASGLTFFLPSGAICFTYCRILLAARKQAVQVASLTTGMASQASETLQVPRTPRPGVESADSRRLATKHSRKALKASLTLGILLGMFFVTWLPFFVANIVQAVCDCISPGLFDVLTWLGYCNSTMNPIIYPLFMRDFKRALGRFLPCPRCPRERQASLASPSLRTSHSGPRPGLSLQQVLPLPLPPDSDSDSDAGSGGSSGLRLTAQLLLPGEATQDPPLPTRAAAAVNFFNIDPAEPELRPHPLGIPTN
How it was run: as §1

muscarinic M3 receptor = molecular target: T3, muscarinic M3 receptor (Homo sapiens, UniProt P20309); experiment: Binding assay M3 (h), [3H]4-DAMP, CHO cells; conditions: read-out: M3 [%]
T3 construct: expressed in transfected cells; host or cells: CHO cells
T3 sequence (P20309 whole entry): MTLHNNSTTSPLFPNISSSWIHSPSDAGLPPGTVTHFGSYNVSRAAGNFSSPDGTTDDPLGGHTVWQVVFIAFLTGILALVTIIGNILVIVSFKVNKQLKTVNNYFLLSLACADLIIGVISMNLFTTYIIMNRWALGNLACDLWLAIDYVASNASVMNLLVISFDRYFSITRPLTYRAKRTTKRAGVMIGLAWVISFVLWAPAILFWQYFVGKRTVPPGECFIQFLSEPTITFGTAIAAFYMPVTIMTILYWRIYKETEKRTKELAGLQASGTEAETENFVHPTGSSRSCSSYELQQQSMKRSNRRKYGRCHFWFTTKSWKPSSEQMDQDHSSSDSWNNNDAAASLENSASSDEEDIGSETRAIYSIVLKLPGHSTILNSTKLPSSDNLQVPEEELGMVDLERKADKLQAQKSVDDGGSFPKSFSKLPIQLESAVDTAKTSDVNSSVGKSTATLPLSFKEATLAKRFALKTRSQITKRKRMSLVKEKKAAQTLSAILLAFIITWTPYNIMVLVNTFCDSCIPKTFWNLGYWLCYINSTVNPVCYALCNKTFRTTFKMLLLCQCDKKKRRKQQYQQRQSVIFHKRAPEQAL
Experimental: as §2, §3

[6] = molecular target: T4, serotoninergic receptor 5-HT2C (Homo sapiens, UniProt P28335); experiment: Binding assay 5-HT2C (h), [3H]mesulergine, HEK-293 cells; conditions: read-out: 5-HT2C [%]
T4 construct: expressed in transfected cells; host or cells: HEK-293 cells
T4 sequence (P28335 33-458): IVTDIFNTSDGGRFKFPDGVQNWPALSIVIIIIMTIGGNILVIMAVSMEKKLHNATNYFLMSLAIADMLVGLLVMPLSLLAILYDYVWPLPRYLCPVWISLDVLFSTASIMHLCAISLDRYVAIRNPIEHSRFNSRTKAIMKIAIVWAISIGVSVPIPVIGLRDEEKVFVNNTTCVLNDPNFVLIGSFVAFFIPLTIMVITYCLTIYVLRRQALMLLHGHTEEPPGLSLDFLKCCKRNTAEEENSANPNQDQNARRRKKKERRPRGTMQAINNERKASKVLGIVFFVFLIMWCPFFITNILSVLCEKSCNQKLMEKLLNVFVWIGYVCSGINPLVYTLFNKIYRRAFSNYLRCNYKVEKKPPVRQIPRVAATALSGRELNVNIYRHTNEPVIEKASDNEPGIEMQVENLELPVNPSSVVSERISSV
Experimental: as §2, §3

dopaminergic D3 receptor = dopaminergic D3 receptor (Homo sapiens, UniProt P35462); experiment: Binding assay D3 (h), [3H]methyl-spiperone, CHO cells; set-up: expressed in transfected cells; host or cells: CHO cells; conditions: read-out: D3 [%]
Chain of dopaminergic D3 receptor (P35462 whole entry): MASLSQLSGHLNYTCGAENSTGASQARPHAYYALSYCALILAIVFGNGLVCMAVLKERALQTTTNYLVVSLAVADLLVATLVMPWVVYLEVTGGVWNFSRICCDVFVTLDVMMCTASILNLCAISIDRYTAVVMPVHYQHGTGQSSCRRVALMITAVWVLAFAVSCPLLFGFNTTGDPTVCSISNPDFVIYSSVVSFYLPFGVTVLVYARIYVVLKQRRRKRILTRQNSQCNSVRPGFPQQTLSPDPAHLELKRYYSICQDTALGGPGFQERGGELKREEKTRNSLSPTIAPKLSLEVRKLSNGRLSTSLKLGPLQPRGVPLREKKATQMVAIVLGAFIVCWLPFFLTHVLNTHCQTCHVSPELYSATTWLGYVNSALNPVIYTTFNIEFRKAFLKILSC
How it was run: as §1

adrenergic α2C receptor = molecular target: T5, adrenergic α2C receptor (Homo sapiens, UniProt P18825); experiment: Binding assay α2C (h), [3H]RX 821002, CHO cells; set-up: expressed in transfected cells; host or cells: CHO cells; conditions: read-out: α2C [%]
T5 sequence (P18825 1-462): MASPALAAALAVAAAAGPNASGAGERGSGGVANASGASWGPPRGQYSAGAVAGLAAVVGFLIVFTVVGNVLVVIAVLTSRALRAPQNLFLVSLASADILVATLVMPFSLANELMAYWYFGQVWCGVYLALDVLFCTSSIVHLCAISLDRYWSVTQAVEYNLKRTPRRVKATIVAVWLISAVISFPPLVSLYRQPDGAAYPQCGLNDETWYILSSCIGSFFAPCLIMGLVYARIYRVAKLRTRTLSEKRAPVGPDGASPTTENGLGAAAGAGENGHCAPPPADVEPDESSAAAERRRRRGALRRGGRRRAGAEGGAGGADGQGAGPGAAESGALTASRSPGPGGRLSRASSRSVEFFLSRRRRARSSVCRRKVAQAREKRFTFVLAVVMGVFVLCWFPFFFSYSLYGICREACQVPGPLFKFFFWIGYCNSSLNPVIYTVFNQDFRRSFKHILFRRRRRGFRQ
Experimental: as §2, §3

dopaminergic D2 receptor = dopaminergic D2 receptor (Homo sapiens, UniProt P14416); experiment: Binding assay D2S (h), [3H]methyl-spiperone, HEK-293 cells; set-up: expressed in transfected cells; host or cells: HEK-293 cells; conditions: read-out: D2 [%]
Chain of dopaminergic D2 receptor (P14416 1-414 isoform P14416-2): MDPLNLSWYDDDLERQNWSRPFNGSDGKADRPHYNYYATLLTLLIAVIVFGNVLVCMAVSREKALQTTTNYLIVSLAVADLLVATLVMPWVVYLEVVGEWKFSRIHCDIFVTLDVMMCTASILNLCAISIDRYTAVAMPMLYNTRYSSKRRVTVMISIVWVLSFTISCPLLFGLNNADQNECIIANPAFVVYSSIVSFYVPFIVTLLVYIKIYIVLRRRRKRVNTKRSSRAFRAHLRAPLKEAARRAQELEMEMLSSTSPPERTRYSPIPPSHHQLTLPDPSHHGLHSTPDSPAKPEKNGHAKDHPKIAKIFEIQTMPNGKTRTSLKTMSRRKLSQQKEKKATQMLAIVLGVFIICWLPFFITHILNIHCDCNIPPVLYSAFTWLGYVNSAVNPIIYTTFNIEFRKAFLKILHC
How it was run: as §1

[7] = molecular target: serotoninergic 5-HT7 receptor (Homo sapiens, UniProt P34969); experiment: Binding assay 5-HT7 (h), [3H]LSD, CHO cells; set-up: expressed in transfected cells; host or cells: CHO cells; conditions: read-out: 5-HT7
Chain of serotoninergic 5-HT7 receptor (P34969 whole entry): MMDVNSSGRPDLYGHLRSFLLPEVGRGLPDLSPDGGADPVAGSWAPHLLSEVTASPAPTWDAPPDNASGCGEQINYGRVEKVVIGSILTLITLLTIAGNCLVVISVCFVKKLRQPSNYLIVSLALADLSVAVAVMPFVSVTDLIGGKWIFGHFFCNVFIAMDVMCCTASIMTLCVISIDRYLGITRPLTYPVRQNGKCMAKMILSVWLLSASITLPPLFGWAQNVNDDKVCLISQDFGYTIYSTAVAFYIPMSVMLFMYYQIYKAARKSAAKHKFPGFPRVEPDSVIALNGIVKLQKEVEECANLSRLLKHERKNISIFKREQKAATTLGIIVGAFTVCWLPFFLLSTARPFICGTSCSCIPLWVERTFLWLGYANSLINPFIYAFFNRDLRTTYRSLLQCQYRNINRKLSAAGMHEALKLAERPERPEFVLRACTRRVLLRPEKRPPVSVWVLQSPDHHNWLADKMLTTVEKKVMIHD
How it was run: as §1

SMILES: O=S(=O)(NCCCCN1CCC(c2noc3cc(F)ccc23)CC1)c1cc2ccccc2o1 [Compound 316, N-[4-[4-(6-Fluoro-1,2-benzoxazol-3-yl)piperidin-1-yl]butyl]benzofuran-2-sulphonamide]
- α1 [%] (adrenergic α1 receptor): 90%
- inhibition at 1 µM [1]: 47%
- inhibition at 1 µM [2]: 84%
- inhibition at 1 µM [3]: 85%
- inhibition at 1 µM [4]: 102%
- σ [%] (sigma σ receptor): 81%
- inhibition at 1 µM [5]: 93%
- inhibition at 1 µM (muscarinic M3 receptor): 28%
- inhibition at 1 µM [6]: 66%
- inhibition at 1 µM (dopaminergic D3 receptor): 95%
- inhibition at 1 µM (adrenergic α2C receptor): 94%
- inhibition at 1 µM (dopaminergic D2 receptor): 98%
- inhibition at 1 µM [7]: 97%

SMILES: O=S(=O)(NCCCN1CCC(c2noc3cc(F)ccc23)CC1)c1cc2ccc(Cl)cc2s1 [Compound 347, 6-Chloro-N-[3-[4-(6-fluoro-1,2-benzoxazol-3-yl)piperidin-1-yl]propyl]benzothiophene-2-sulphonamide]
- inhibition at 1 µM [1]: 33%
- inhibition at 1 µM [2]: 92%
- inhibition at 1 µM [3]: 98%
- inhibition at 1 µM [4]: 101%
- inhibition at 1 µM [5]: 99%
- inhibition at 1 µM (muscarinic M3 receptor): 12%
- inhibition at 1 µM [6]: 99%
- inhibition at 1 µM (dopaminergic D3 receptor): 103%
- inhibition at 1 µM (adrenergic α2C receptor): 110%
- inhibition at 1 µM (dopaminergic D2 receptor): 103%
- inhibition at 1 µM [7]: 100%

SMILES: O=S(=O)(NCCCN1CCN(c2nsc3ccccc23)CC1)c1ccc(-c2ccccc2)cc1 [Compound 260, N-[3-[4-(1,2-Benzothiazol-3-yl)piperazin-1-yl]propyl]-4-phenylbenzenesulphonamide]
- α1 [%] (adrenergic α1 receptor): 91%
- inhibition at 1 µM [1]: 90%
- inhibition at 1 µM [2]: 96%
- inhibition at 1 µM [3]: 95%
- inhibition at 1 µM [4]: 102%
- σ [%] (sigma σ receptor): 41%
- inhibition at 1 µM [5]: 92%
- inhibition at 1 µM (muscarinic M3 receptor): 11%
- inhibition at 1 µM [6]: 90%
- inhibition at 1 µM (dopaminergic D3 receptor): 98%
- inhibition at 1 µM (adrenergic α2C receptor): 99%
- inhibition at 1 µM (dopaminergic D2 receptor): 99%
- inhibition at 1 µM [7]: 100%

SMILES: O=S(=O)(NCCCN1CCN(c2nsc3ccccc23)CC1)c1ccc(C(F)(F)F)cc1 [Compound 257, N-[3-[4-(1,2-Benzothiazol-3-yl)piperazin-1-yl]propyl]-4-(trifluoromethyl)benzenesulphonamide]
- α1 [%] (adrenergic α1 receptor): 94%
- inhibition at 1 µM [1]: 93%
- inhibition at 1 µM [2]: 99%
- inhibition at 1 µM [3]: 91%
- inhibition at 1 µM [4]: 101%
- σ [%] (sigma σ receptor): 57%
- inhibition at 1 µM [5]: 94%
- inhibition at 1 µM (muscarinic M3 receptor): 12%
- inhibition at 1 µM [6]: 83%
- inhibition at 1 µM (dopaminergic D3 receptor): 100%
- inhibition at 1 µM (adrenergic α2C receptor): 99%
- inhibition at 1 µM (dopaminergic D2 receptor): 99%
- inhibition at 1 µM [7]: 101%

SMILES: O=c1[nH]c2cccc(N3CCN(CCCCNS(=O)(=O)c4ccc5ccccc5c4)CC3)c2[nH]1 [Compound 419, N-[4-[4-(2-oxo-1,3-dihydrobenzimidazol-4-yl)piperazin-1-yl]butyl]naphthalene-2-sulphonamide]
- α1 [%] (adrenergic α1 receptor): 86%
- inhibition at 1 µM [1]: -21%
- inhibition at 1 µM [2]: 98%
- inhibition at 1 µM [3]: 12%
- inhibition at 1 µM [4]: 52%
- σ [%] (sigma σ receptor): −14%
- inhibition at 1 µM [5]: 12%
- inhibition at 1 µM (muscarinic M3 receptor): -8%
- inhibition at 1 µM [6]: 7%
- inhibition at 1 µM (dopaminergic D3 receptor): 97%
- inhibition at 1 µM (adrenergic α2C receptor): 93%
- inhibition at 1 µM (dopaminergic D2 receptor): 93%
- inhibition at 1 µM [7]: 86%

SMILES: Cc1[nH]c2ccc(Cl)cc2c1C1=CCN(CCCCNS(=O)(=O)c2ccc(Cl)cc2)CC1 [Compound 58, 4-Chloro-N-{4-[4-(5-chloro-2-methyl-1H-indol-3-yl)-3,6-dihydropyridin-1(2H)-yl]butyl}benzenesulphonamide]
- α1 [%] (adrenergic α1 receptor): 76%
- inhibition at 1 µM [1]: 78%
- inhibition at 1 µM [2]: 94%
- inhibition at 1 µM [3]: 75%
- inhibition at 1 µM [4]: 51%
- σ [%] (sigma σ receptor): 34%
- inhibition at 1 µM [5]: 84%
- inhibition at 1 µM (muscarinic M3 receptor): 11%
- inhibition at 1 µM [6]: 21%
- inhibition at 1 µM (dopaminergic D3 receptor): 100%
- inhibition at 1 µM (adrenergic α2C receptor): 80%
- inhibition at 1 µM (dopaminergic D2 receptor): 97%
- inhibition at 1 µM [7]: 46%

SMILES: O=S(=O)(NCCCN1CCN(c2nsc3ccccc23)CC1)c1ccc(Cl)c(Cl)c1 [Compound 251, N-[3-[4-(1,2-Benzothiazol-3-yl)piperazin-1-yl]propyl]-3,4-dichlorobenzenesulphonamide]
- α1 [%] (adrenergic α1 receptor): 95%
- inhibition at 1 µM [1]: 87%
- inhibition at 1 µM [2]: 99%
- inhibition at 1 µM [4]: 101%
- σ [%] (sigma σ receptor): 61%
- inhibition at 1 µM [5]: 99%
- inhibition at 1 µM (muscarinic M3 receptor): 8%
- inhibition at 1 µM [6]: 83%
- inhibition at 1 µM (dopaminergic D3 receptor): 97%
- inhibition at 1 µM (adrenergic α2C receptor): 96%
- inhibition at 1 µM (dopaminergic D2 receptor): 97%
- inhibition at 1 µM [7]: 99%

SMILES: O=c1[nH]c2cccc(N3CCN(CCCNS(=O)(=O)c4ccc(Cl)cc4)CC3)c2[nH]1 [Compound 425, 4-chloro-N-[3-[4-(2-oxo-1,3-dihydrobenzimidazol-4-yl)piperazin-1-yl]propyl]-benzenesulphonamide]
- inhibition at 1 µM [1]: 10%
- inhibition at 1 µM [2]: 98%
- inhibition at 1 µM [3]: 6%
- inhibition at 1 µM [4]: 25%
- inhibition at 1 µM [5]: 5%
- inhibition at 1 µM (muscarinic M3 receptor): 2%
- inhibition at 1 µM [6]: 24%
- inhibition at 1 µM (dopaminergic D3 receptor): 104%
- inhibition at 1 µM (adrenergic α2C receptor): 59%
- inhibition at 1 µM (dopaminergic D2 receptor): 91%
- inhibition at 1 µM [7]: 95%

SMILES: O=S(=O)(NCCCN1CCN(c2nsc3ccccc23)CC1)c1ccc(F)c(Cl)c1 [Compound 64, N-[3-[4-(1,2-Benzothiazol-3-yl)piperazin-1-yl]propyl]-3-chloro-4-fluorobenzenesulphonamide]
- α1 [%] (adrenergic α1 receptor): 93%
- inhibition at 1 µM [1]: 80%
- inhibition at 1 µM [2]: 99%
- inhibition at 1 µM [3]: 98%
- inhibition at 1 µM [4]: 101%
- σ [%] (sigma σ receptor): 54%
- inhibition at 1 µM [5]: 99%
- inhibition at 1 µM (muscarinic M3 receptor): 7%
- inhibition at 1 µM (dopaminergic D3 receptor): 98%
- inhibition at 1 µM (adrenergic α2C receptor): 100%
- inhibition at 1 µM (dopaminergic D2 receptor): 98%
- inhibition at 1 µM [7]: 99%
